From US7238716B2, “Alkanoic acid derivatives process for their production and use thereof” (Takeda Pharmaceuticals Company Limited, priority 2000, dated 2007)
Where two headings read alike, the source gives them in different places.

Key:
[1] = test system: KKAY mice; test: Hypoglycemic and hypolipidemic actions in mice (Test Example 1); type: in vivo; conditions: Mus musculus, po, 96 h, 0.005% in powdery diet, four days
Description: Test compounds were mixed in a powdery diet (CE-2, Japan Clea) at the concentration of 0.01% (compounds of Examples 7, 26, 29, 32) or 0.005% (compounds of Examples 1, 11, 15, 18, 24, 36, 37, 41, 48, 50, 51, 52, 58, 62, 79, 83, 88, 90, 91, 92, 93, 97, 107, 110, 115, 119, 122, 125, 129 and 130), and freely given to KKAY mice (11 to 12 weeks old, 5 mice in a group), a model of type 2 diabetes mellitus, for four days. During this period, water was given freely. Blood was sampled from orbital venous plexus, and glucose and triglyceride levels in plasma separated from blood were determined enzymatically using L type Wako Glu2 (Wako Pure Chemical Industries, Ltd.) or L type Wako TG.H (Wako Pure Chemical Industries, Ltd.), respectively.
In the Table, “hypoglycemic action (%)” means a percent reduction (%) of the glucose level in the test compound administration group when that of the test compound non-administration group is taken as 100%. In addition, the “hypolipidemic action (%)” means a percent reduction (%) of the triglyceride level in the test compound administration group when that of the test compound non-administration group is taken as 100%.

[2] = target: T1, PPARγ-RXRα heterodimer (Homo sapiens, UniProt P37231); test: PPARγ-RXRα heterodimer ligand activity, luciferase reporter in PPARγ:RXRα:4ERPP/CHO-K1 cells (Test Example 3); type: cell-based; conditions: concentration for 50% of the maximum fold induction of luciferase activity; 48 hours, CHO-K1 cells
T1 construct: expressed in transfected cells; host or cells: CHO-K1
T1 sequence (P37231 1-477 isoform P37231-2): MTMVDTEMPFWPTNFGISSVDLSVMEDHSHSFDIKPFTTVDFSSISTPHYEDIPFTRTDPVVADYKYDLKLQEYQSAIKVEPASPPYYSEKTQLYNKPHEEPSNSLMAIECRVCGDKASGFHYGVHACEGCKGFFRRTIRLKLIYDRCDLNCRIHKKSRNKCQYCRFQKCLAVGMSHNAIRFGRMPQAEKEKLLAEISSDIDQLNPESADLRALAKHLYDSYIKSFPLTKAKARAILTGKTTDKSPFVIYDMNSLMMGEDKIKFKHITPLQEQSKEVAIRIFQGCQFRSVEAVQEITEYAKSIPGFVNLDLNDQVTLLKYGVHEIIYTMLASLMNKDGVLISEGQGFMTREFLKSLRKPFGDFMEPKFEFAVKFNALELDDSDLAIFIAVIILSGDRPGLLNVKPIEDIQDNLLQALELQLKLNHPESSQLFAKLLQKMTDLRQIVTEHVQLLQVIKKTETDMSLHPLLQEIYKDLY
T1 sequence (P19793 1-462 partner): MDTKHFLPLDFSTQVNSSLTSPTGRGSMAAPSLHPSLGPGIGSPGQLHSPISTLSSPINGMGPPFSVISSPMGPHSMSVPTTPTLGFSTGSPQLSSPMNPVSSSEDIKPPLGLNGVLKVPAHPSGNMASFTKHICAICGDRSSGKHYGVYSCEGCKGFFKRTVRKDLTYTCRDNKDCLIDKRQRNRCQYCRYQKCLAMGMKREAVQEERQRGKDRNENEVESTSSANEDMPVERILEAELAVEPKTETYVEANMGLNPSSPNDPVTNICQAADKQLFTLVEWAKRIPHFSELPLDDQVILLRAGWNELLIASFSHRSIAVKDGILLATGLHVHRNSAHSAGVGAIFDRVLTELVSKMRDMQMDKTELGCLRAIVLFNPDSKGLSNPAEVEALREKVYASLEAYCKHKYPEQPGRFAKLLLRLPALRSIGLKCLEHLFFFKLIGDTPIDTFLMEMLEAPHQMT
Experimental: A PPARγ:RXRα:4ERPP/CHO-K1 cells obtained in Reference Example 5 described later were cultured in HAM F12 medium (produced by NISSUI SEIYAKU) containing 10% Fetal bovine serum (produced by Life Technologies, Inc., USA) and then inoculated to a 96-well white plate (produced by Corning Costar Corporation, USA) at the density of 2×10^4 cells/well, and cultured in a CO2 gas incubator at 37° C. overnight.
After washing the 96 well white plate with PBS (Phosphate-buffered saline), 90 μl of HAM F12 medium containing 0.1% fatty acid-free bovine serum albumin (BSA) and 10 μl of test compound were added, which was cultured in a CO2 gas incubator at 37° C. for 48 hours. After removing the medium, 40 μl of PIKKAGENE 7.5 (produced by Wako Pure Chemical Industries, Ltd.) was added. After stirring, the luciferase activity was determined using Lumistar (produced by BMG Labtechnologies GmbH, Germany).
A fold induction was calculated based on the luciferase activity of each test compound by taking the luciferase activity in the test compound non administration group as 1. The values of the test compound, concentration and the fold induction were analyzed using PRISM 2.01 (produced by GraphPad Software Inc. USA) to calculate the EC50 values, the effective concentration of a test compound for 50% of the maximum fold induction.
After a CHO-K1 cell cultured in a 750 ml tissue culture flask (produced by Corning-Costar Corporation, USA) containing HAM F12 medium (produced by NISSUI SEIYAKU) supplemented with 10% Fetal Bovine Serum (produced by Life Technologies, Inc., USA) was scraped by treating with 0.5 g/L trypsin-0.2 g/L EDTA (ethylenediaminetetraacetic acid) (produced by Life Technologies, Inc., USA), the cell was washed with PBS (phosphate buffered saline) (produced by Life Technologies, Inc., USA), centrifuged (1000 rpm, 5 minutes), and then suspended in PBS. Subsequently, a DNA was introduced into the cell under the condition shown below using GENE PULSER (produced by Bio-Rad Laboratories, USA).
Namely, to a cuvette having a 0.4 cm gap, added were 8×10^6 cells and 10 μg of plasmid pVgRXR2-hPPARγ obtained in Reference Example 3 and 10 μg of reporter plasmid pGL3-4ERPP-TK neo obtained in Reference Example 4, which was subjected to electroporation at the voltage of 0.25 kV under the capacitance of 960 μF. Subsequently, the cell was transferred into a HAM F12 medium containing 10% Fetal Bovine. Serum and cultured for 24 hours. Then the cell was scraped again and centrifuged, and then suspended in HAM F12 medium containing 10% Fetal Bovine Serum supplemented with 500 μg/ml of GENETICIN (produced by Life Technologies, Inc., USA) and 250 μg/ml of ZEOCIN (produced by Invitrogen, USA). The suspension was diluted to the density of 10^4 cells/ml, and inoculated to a 96-well plate (produced by Corning Costar Corporation, USA), which was cultured in a CO2 gas incubator at 37° C., whereby obtaining a GENETICIN- and ZEOCIN-resistant transformant.
Subsequently, after the transformant cell line thus obtained was cultured in a 24-well plate (produced by Corning Costar Corporation, USA), selected was a cell line, PPARγ:RXRα:4ERPP/CHO-K1 cell, in which the luciferase was expressed and induced by addition of 10 μM pioglitazone hydrochloride.

Cc1oc(-c2ccccc2)nc1COc1ccc(OCc2ncccc2CC(=O)O)cc1 [Example 125, 2-[2-[[4-[(5-methyl-2-phenyl-4-oxazolyl)methoxy]phenoxy]methyl]-3-pyridyl]acetic acid]
inhibition in vivo at 0.005 % ([1]; percent reduction of plasma glucose level vs non-administration group, read-out: hypoglycemic action (%)): 41% | inhibition in vivo at 0.005 % ([1]; percent reduction of plasma triglyceride level vs non-administration group, read-out: hypolipidemic action (%)): 40% | EC50 [2]: 130 nM | melting point: 126 to 127 °C
